Experimental data taken from US7537919B2, “Cytochrome P450RAI-2 and related proteins” (Cytochroma Inc., priority 1999, dated 2009).
pIC50: −log10 of the molar value. Several values for one entry are separate records, joined by “and”; a condition that tells them apart may be missing. Equal values may be shown once.

Tests used:
[1] = system: P450RAI-2 transcripts; experiment: Induction of P450RAI-2 mRNA in cultured cell lines (Northern blot, RT-PCR); settings: for induction of P450RAI-2 expression, MCF-7 cells: 10^-6 M retinoid
[2] = Conversion of [3H]all-trans-RA in controls (media alone, pcDNA3.1 transfected COS-1 cells)
[3] = target: T1, P450RAI-1 (Homo sapiens, UniProt O43174); experiment: Competitive inhibition of all-trans-RA metabolism in COS-1 cells transfected with pcDNA3.1-P450RAI-1; assay type: cell-based; parameters: expressed in transfected cells; host or cells: COS-1 (African green monkey kidney), transient transfection; settings: for pIC50: 2 nM [3H]all-trans-RA, 3 hours, aqueous soluble radioactivity, read-out: Interpolated ID50, P450RAI-1; for effectiveness as competitor of P450RAI-1 mediated all-trans-RA metabolism: compared with all-trans-RA
T1 sequence (O43174 1-497): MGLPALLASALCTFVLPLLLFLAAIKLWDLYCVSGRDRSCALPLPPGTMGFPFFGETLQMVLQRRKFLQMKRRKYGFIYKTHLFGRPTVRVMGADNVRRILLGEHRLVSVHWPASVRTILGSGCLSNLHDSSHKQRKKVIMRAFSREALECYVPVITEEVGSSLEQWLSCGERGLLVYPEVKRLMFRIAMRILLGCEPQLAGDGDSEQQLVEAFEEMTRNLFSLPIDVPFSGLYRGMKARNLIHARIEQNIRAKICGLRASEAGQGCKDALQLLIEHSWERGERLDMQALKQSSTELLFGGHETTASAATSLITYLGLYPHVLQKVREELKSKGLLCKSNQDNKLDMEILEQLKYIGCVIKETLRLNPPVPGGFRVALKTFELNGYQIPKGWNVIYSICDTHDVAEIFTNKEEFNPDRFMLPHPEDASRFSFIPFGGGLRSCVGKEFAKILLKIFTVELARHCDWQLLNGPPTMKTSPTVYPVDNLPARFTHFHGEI
Method: (§1) Panels on the right show cells expressing P450RAI-2 with panels on the left showing cells expressing P450RAI-1.
(§2) Exponentially growing cells were plated in triplicate into 6-well plates and transfected with lug of pcDNA3.1-P450RAI-1 or pcDNA3.1-P450RAI-2 using Fugene 6 transfection reagent with 3 ul per sample as described by the manufacturer (Roche Molecular Biochemicals, IN). Cells were maintained in media supplemented with 10% FBS during transfection.
COS-1 cells were transfected with either pcDNA3.1-P450RAI-1 or pcDNA3.1-P450RAI-2 in 6-well tissue culture plates as described above. 48 hours post-transfection cells were harvested, pooled, washed with DMEM medium and replated into duplicate 48-well plates with 5×10^5 cells per well.

[4] = target: T2, P450RAI-2 (Homo sapiens, UniProt Q9NR63); experiment: Metabolism of [3H]all-trans-RA to aqueous-soluble products in COS-1 cells transfected with pcDNA3.1-P450RAI-2; parameters: dose or concentration left out as unconfirmed; settings: radiolabelled all-trans-retinoic acid
T2 sequence (Q9NR63 1-512): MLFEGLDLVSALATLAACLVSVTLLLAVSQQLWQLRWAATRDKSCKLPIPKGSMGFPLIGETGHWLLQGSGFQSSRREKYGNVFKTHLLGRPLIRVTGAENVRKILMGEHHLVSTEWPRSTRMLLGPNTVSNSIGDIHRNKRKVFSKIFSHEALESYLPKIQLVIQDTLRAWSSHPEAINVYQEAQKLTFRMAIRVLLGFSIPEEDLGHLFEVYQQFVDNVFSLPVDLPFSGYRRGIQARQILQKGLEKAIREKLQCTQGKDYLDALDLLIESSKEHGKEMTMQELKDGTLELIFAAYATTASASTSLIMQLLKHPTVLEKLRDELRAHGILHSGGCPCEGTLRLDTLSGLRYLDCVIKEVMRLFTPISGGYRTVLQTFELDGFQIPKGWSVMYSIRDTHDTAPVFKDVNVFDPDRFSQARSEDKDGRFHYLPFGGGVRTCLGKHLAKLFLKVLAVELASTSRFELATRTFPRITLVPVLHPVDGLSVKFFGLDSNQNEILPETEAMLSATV

[5] = target: T1, P450RAI-1; experiment: Metabolism of [3H]all-trans-RA to aqueous-soluble products in COS-1 cells transfected with pcDNA3.1-P450RAI-1; settings: 100 mM (so in the source) radiolabelled all-trans-retinoic acid
[6] = target: T2, P450RAI-2; experiment: Competitive inhibition of all-trans-RA metabolism in COS-1 cells transfected with pcDNA3.1-P450RAI-2; assay type: cell-based; parameters: The full-length human P450RAI-2 cDNA was cloned into the eukaryotic expression vector pcDNA 3.1; expressed in transfected cells; host or cells: COS-1 (African green monkey kidney), transient transfection; settings: for effectiveness as competitor of P450RAI-2 mediated all-trans-RA metabolism: compared with all-trans-RA, COS-1 cells
Method: as §1, §2
COS-1 cells were transfected with either pcDNA3.1-P450RAI-1 or pcDNA3.1-P450RAI-2 in 6-well tissue culture plates as described above.

[7] = system: P450RAI-2 expression; experiment: P450RAI-2 expression in RAFT and psoriasis biopsy samples (Northern blot, RT-PCR); assay type: cell-based, human
Method: Total RNA aliquots (10 μg) were electrophoresed on a 1.0% formaldehyde-agarose gel and a northern blot performed. The gel was photographed under ultraviolet light and then blotted on Hybond ECL nitrocellulose membrane (Amersham Pharmacia Biotech, UK) and fixed to the membrane by baking at 80° C. for 2 hours under vacuum. […] Three individual cDNA fragments were labeled with α-[^32P]dATP using the Prime-A-Gene Labeling System (Promega, WI). The probes were as follows; P450RAI-1762-1217 bp of SEQ ID NO:13, full length P450RAI-2 SEQ ID NO:4 and a human glyceraldehyde-3-phosphate dehydrogenase (GAPDH) PCR fragment. The blot was hybidized with P450RAI-2, washed two times for 5 minutes in 2×SSPE, 0.1% SDS at room temperature, then washed once at 65° C. for 10 minutes in 1×SSPE, 0.1% SDS and a final wash for 15 minutes at 65° C. in 0.1×SSPE, 0.1% SDS. The blot was exposed at −70° C. for 48 hours to Kodak X-Omat AR film (Eastman Kodak Company, NY). […] The blot was stripped by washing two times for 30 minutes in boiling 0.5% SDS and exposed to film overnight to ensure proper removal of probe. The above protocol was repeated for P450RAI-1 and GAPDH. The P450RAI-1 and GAPDH blots were exposed for 96 and 4 hours respectively.
The final primer concentrations were 45 μM for the P450RAI-1 and P450RAI-2 primers and 11.25 μM for the GAPDH-specific primers. Two separate sets of reactions were performed using the primer sets, P450RAI-1/GAPDH and P450RAI-2/GAPDH. […] The P450RAI-1, P450RAI-2 and GAPDH upstream and downstream amplification primers sets were 5′[…]-3′ (SEQ ID NO: 35) and 5′-[…]-3′ (SEQ ID NO: 36), 5′-[…]-3′ (SEQ ID NO: 37) and 5′-[…]-3′ (SEQ ID NO: 38), 5′-[…]-3′ (SEQ ID NO: 39) and 5′-[…]-3′ (SEQ ID NO: 40) respectively. […] Both the Psoriasis samples show PCR products corresponding to P450RAI-2.

CC1=C(/C=C/C(C)=C/C=C/C(C)=C/C(=O)O)C(C)(C)CCC1 [All-trans-RA, all-trans retinoic acid]
time to induction of P450RAI-2 transcripts ([1]; HPK1a-ras cells, RT-PCR, post-addition of inducer): ≤ 2 h
induction of P450RAI-2 transcripts, HPK1a-ras, HeLa and MCF-7 ([1]; Northern blot, 1 μM, 12 hours): show induction
induction of P450RAI-2 expression, MCF-7 cells ([1]; Northern blot, 12 hours): induced
induction of P450RAI-2 expression, HPK1A-RAS keratinocytes ([1]; Northern blot, 10^-6 M, 12 hours): inducible
inducible expression of P450RAI-2, MCF-7, HeLa, HPK1a-ras and WT-E ([1]; RT-PCR, 1 μM): evidence for inducible expression
P450RAI-2 transcripts in NB4, V79 and SK-Luci-6 cells ([1]; RT-PCR, vehicle or all-trans-RA treated): little or no perceptible transcripts
conversion of substrate to aqueous radioactivity, pcDNA3.1 transfected cells ([2]; COS-1 cells with empty vector pcDNA3.1, 3 hours): 2.7±0.2%
conversion of substrate to aqueous radioactivity, media alone ([2]; media alone control, 3 hours): 1.6±0.1%
pIC50 [3]: ~5.60 and 5.60
all-trans-RA substrate converted to aqueous-soluble products, P450RAI-2 transfected cells [4]: 34±0.2%
all-trans-RA substrate converted to aqueous-soluble products, P450RAI-1 transfected cells [5]: 26±1.5%

CC1=C(/C=C/C(C)=C/C=C/C(C)=C/CO)C(C)(C)CCC1 [Retinol, retinol]
pIC50 [3]: < 4.00
effectiveness as competitor of P450RAI-1 mediated all-trans-RA metabolism [3]: less effective
effectiveness as competitor of P450RAI-1 mediated all-trans-RA metabolism ([3]; listed as retinol): very poor competitors
effectiveness as competitor of P450RAI-2 mediated all-trans-RA metabolism [6]: less effective
effectiveness as competitor of P450RAI-2 mediated all-trans-RA metabolism ([6]; listed as retinol): very poor competitors
pIC50 ([6]; read-out: Interpolated ID50, P450RAI-2): < 4.00

CC1=C(/C=C/C(C)=C/C=C/C(C)=C\C(=O)O)C(C)(C)CCC1 [13-cis-RA, 13-cis retinoic acid]
induction of P450RAI-2 expression, MCF-7 cells ([1]; Northern blot, 12 hours): induced
effectiveness as competitor of P450RAI-1 mediated all-trans-RA metabolism [3]: less effective
effectiveness as competitor of P450RAI-2 mediated all-trans-RA metabolism [6]: less effective

CC1=C(/C=C/C(C)=C/C=C/C(C)=C/C=O)C(C)(C)CCC1 [retinal]
effectiveness as competitor of P450RAI-1 mediated all-trans-RA metabolism [3]: less effective
effectiveness as competitor of P450RAI-1 mediated all-trans-RA metabolism ([3]; listed as retinaldehyde): very poor competitors
effectiveness as competitor of P450RAI-2 mediated all-trans-RA metabolism [6]: less effective
effectiveness as competitor of P450RAI-2 mediated all-trans-RA metabolism ([6]; listed as retinaldehyde): very poor competitors

CCOC(=O)c1ccc(C#Cc2ccc3c(c2)C(C)(C)CCS3)nc1 [Tazarotene]
P450RAI-2 expression, Day14 Psoriasis Biopsy sample ([7]; Northern blot): expressed
P450RAI-2 expression, RAFT sample ([7]; Northern blot): induced
P450RAI-2 expression, RAFT sample ([7]; RT-PCR): shows expression

CC1=C(/C=C/C(C)=C\C=C\C(C)=C\C(=O)O)C(C)(C)CCC1 [9-cis-RA, 9-cis retinoic acid]
induction of P450RAI-2 expression, MCF-7 cells ([1]; Northern blot, 12 hours): not clear
effectiveness as competitor of P450RAI-1 mediated all-trans-RA metabolism [3]: less effective
effectiveness as competitor of P450RAI-2 mediated all-trans-RA metabolism [6]: less effective
